The values below come from patent publication US5468742A, “8-vinyl- and 9-ethinyl-quinolone-carboxylic acids” (Bayer Aktiengesellschaft, priority 1991, dated 1995).

≈ marks a conversion by molar mass, not a printed value. Where two headings read alike, the source gives them in different places.

What all share (assay): MIC, serial dilution on Iso-Sensitest agar
Assay type in all cases: cell-based

For test [1], the system named is Acinetobacter calcoaceticus 14068. On the procedure:
(§1) The minimum inhibitory concentrations (MIC) were determined on Iso-Sensitest agar (Oxoid) using the serial dilution method. For each test substance, a series of agar plates was prepared which contained concentrations of the active compound which decreased as the dilution was doubled. The agar plates were inoculated using a multipoint inoculator (Denley). The inocula used were overnight cultures of the pathogens which had previously been diluted to such an extent that each inoculation point contained approx. 10^4 colony-forming units. The inoculated agar plates were incubated at 37° C., and growth of the pathogens was determined after approx. 20 hours. The MIC value (μg/ml) indicates the lowest concentration of active compound where no growth was discernible to the naked eye.
(§2) The table below lists the MIC values of some of the compounds according to the invention compared with ciprofloxacin.

The subject of the next test is E. coli Neumann. As to conditions: Escherichia coli. On the procedure:
as §1, §2

Test [2] has as its system Enterococcus faecalis 27101. On the procedure:
as §1, §2

Test [3] concerns Enterococcus faecalis 9790. As for the experimental part: as §1, §2
Another test relates to Micrococcus luteus 9341. As for the experimental part: as §1, §2
In test [4] the test system is Staphylococcus aureus 133. On the procedure: as §1, §2
The subject of test [5] is Staphylococcus aureus 1756. As for the experimental part: as §1, §2
The test system of test [6] is Staphylococcus aureus ICB 25701. As for the experimental part: as §1, §2
The mark [7] stands for this setting: Acinetobacter calcoaceticus 14068, approx. 10^4 CFU per inoculation point, 37° C., approx. 20 hours, read-out: MIC.
Where [8] appears, read: E. coli Neumann, approx. 10^4 CFU per inoculation point, 37° C., approx. 20 hours, read-out: MIC.
Where [9] appears, read: Enterococcus faecalis 27101, approx. 10^4 CFU per inoculation point, 37° C., approx. 20 hours, read-out: MIC.
Where [10] appears, read: Enterococcus faecalis 9790, approx. 10^4 CFU per inoculation point, 37° C., approx. 20 hours, read-out: MIC.
[11] abbreviates: Micrococcus luteus 9341, approx. 10^4 CFU per inoculation point, 37° C., approx. 20 hours, read-out: MIC.
The mark [12] stands for this setting: Staphylococcus aureus 133, approx. 10^4 CFU per inoculation point, 37° C., approx. 20 hours, read-out: MIC.
Where [13] appears, read: Staphylococcus aureus 1756, approx. 10^4 CFU per inoculation point, 37° C., approx. 20 hours, read-out: MIC.
Where [14] appears, read: ICB25701, Staphylococcus aureus ICB 25701, approx. 10^4 CFU per inoculation point, 37° C., approx. 20 hours, read-out: MIC.

As a reminder, the MIC is the lowest concentration that inhibits growth of the organism. As for `O=C(O)c1cn(C2CC2)c2cc(N3CCNCC3)c(F)cc2c1=O` [Ciprofloxacin, ciprofloxacin, reference compound], the minimum inhibitory concentration (MIC) was 0.25 µg/mL (≈ 0.754 µM) in test [1] (Acinetobacter calcoaceticus, 14068, 20 h); 0.02 µg/mL (≈ 0.0604 µM) with E. coli Neumann (20 h); 0.5 µg/mL (≈ 1.51 µM) in test [2] (Enterococcus faecalis, 27101, 20 h); 0.5 µg/mL (≈ 1.51 µM) in test [3] (Enterococcus faecalis, 9790, 20 h); 2 µg/mL (≈ 6.04 µM) against Micrococcus luteus 9341 (Micrococcus luteus, 9341, 20 h); 0.25 µg/mL (≈ 0.754 µM) in test [4] (Staphylococcus aureus, 133, 20 h). Further, the minimal inhibitory concentration (MIC) in test [5] (Staphylococcus aureus, 1756, 20 h) was 0.25 µg/mL (≈ 0.754 µM); in test [6] (Staphylococcus aureus, ICB25701, 20 h), 16 µg/mL (≈ 48.3 µM).
As for `C#Cc1c(N2CC3NCCOC3C2)c(F)cc2c(=O)c(C(=O)O)cn(C3CC3)c12` (centres unmarked) [Example 7, 1-cyclopropyl-8-ethinyl-6-fluoro-1,4-dihydro-7-(2-oxa-5,8-diazabicyclo[4.3.0]non-8-yl)-4-oxo-3-quinolinecarboxylic acid], the MIC in test [1] (setting [7]) was 0.25 µg/mL (≈ 0.629 µM); with E. coli Neumann (setting [8]), 0.13 µg/mL (≈ 0.327 µM); in test [2] (setting [9]) it was 0.25 µg/mL (≈ 0.629 µM); in test [3] (setting [10]), 0.25 µg/mL (≈ 0.629 µM); in the test on Micrococcus luteus 9341 (setting [11]), 1 µg/mL (≈ 2.52 µM); in test [4] (setting [12]) it was 0.06 µg/mL (≈ 0.151 µM). For the same compound, the figures for the MIC in test [5] (setting [13]) and in test [6] (setting [14]) were 0.06 µg/mL (≈ 0.151 µM) and 1 µg/mL (≈ 2.52 µM), respectively.
Turning to `C#Cc1c(N2CCN(C)CC2)c(F)cc2c(=O)c(C(=O)O)cn(C3CC3)c12` [Example 1, 1-cyclopropyl-8-ethinyl-6-fluoro-1,4-dihydro-7-(4-methyl-1-piperazinyl)-4-oxo-3-quinolinecarboxylic acid], the MIC amounted to 0.02 µg/mL (≈ 0.0541 µM) with E. coli Neumann (setting [8]); 0.25 µg/mL (≈ 0.677 µM) in test [2] (setting [9]); 0.25 µg/mL (≈ 0.677 µM) in test [3] (setting [10]); 0.13 µg/mL (≈ 0.352 µM) in test [4] (setting [12]); 0.13 µg/mL (≈ 0.352 µM) in test [5] (setting [13]); 4 µg/mL (≈ 10.8 µM) in test [6] (setting [14]).
Turning to `C#Cc1c(N2C[C@@H]3CCCN[C@@H]3C2)c(F)cc2c(=O)c(C(=O)O)cn(C3CC3)c12` (relative stereo) [Example 5, 1-cyclopropyl-7-(cis-2,8-diazabicyclo[4.3.0]non-8-yl)-8-ethinyl-6-fluoro-1,4-dihydro-4-oxo-3-quinolinecarboxylic acid], the MIC in test [1] (setting [7]) is 0.03 µg/mL (≈ 0.0759 µM); in the test with E. coli Neumann (setting [8]), 0.02 µg/mL (≈ 0.0506 µM); in test [2] (setting [9]), 0.13 µg/mL (≈ 0.329 µM); in test [3] (setting [10]) it was 0.13 µg/mL (≈ 0.329 µM); with Micrococcus luteus 9341 (setting [11]), 0.5 µg/mL (≈ 1.26 µM); in test [4] (setting [12]) it was 0.13 µg/mL (≈ 0.329 µM). Further, the MIC in test [5] (setting [13]) came out at 0.03 µg/mL (≈ 0.0759 µM); in test [6] (setting [14]) it was 1 µg/mL (≈ 2.53 µM).
As to `CC#Cc1c(N2CC3NCCOC3C2)c(F)cc2c(=O)c(C(=O)O)cn(C3CC3)c12` (centres unmarked) [Example 8, 1-cyclopropyl-6-fluoro-1,4-dihydro-7-(2-oxa-5,8-diazabicyclo[4.3.0]non-8-yl)-4-oxo-8-(propin-1-yl)-3-quinolinecarboxylic acid], the MIC was 0.5 µg/mL (≈ 1.22 µM) in test [1] (setting [7]); 0.25 µg/mL (≈ 0.608 µM) in the test on E. coli Neumann (setting [8]); 0.5 µg/mL (≈ 1.22 µM) in test [2] (setting [9]); 1 µg/mL (≈ 2.43 µM) in test [3] (setting [10]); 2 µg/mL (≈ 4.86 µM) with Micrococcus luteus 9341 (setting [11]); 0.13 µg/mL (≈ 0.316 µM) in test [4] (setting [12]). Besides, the MIC was 0.13 µg/mL (≈ 0.316 µM) in test [5] (setting [13]) and 4 µg/mL (≈ 9.72 µM) in test [6] (setting [14]).
Consider `C=C(C)C#Cc1c(N2CCN(C)CC2)c(F)cc2c(=O)c(C(=O)O)cn(C3CC3)c12` [Example 14, 1-cyclopropyl-6-fluoro-1,4-dihydro-8-(3-methyl-but-3-en-1-inyl)-7-(4-methyl-1-piperazinyl)-4-oxo-3-quinolinecarboxylic acid], for which the MIC in test [1] (setting [7]) was 0.03 µg/mL (≈ 0.0733 µM); in the test with E. coli Neumann (setting [8]), 0.02 µg/mL (≈ 0.0488 µM); in test [2] (setting [9]), 1 µg/mL (≈ 2.44 µM); in test [3] (setting [10]), 1 µg/mL (≈ 2.44 µM); in the test with Micrococcus luteus 9341 (setting [11]), 8 µg/mL (≈ 19.5 µM); in test [4] (setting [12]) it was 0.02 µg/mL (≈ 0.0488 µM). In addition, the minimal inhibitory concentration (MIC) was found to be 0.02 µg/mL (≈ 0.0488 µM) in test [5] (setting [13]) and 32 µg/mL (≈ 78.2 µM) in test [6] (setting [14]).
For `C#Cc1c(N2CC3CC=CC(NC)C3C2)c(F)cc2c(=O)c(C(=O)O)cn(C3CC3)c12` (centres unmarked) [Example 13, 1-cyclopropyl-8-ethinyl-6-fluoro-1,4-dihydro-7-(4-methylamino-1,3,3a,4,7,7a-hexahydroisoindol-2-yl)-4-oxo-3-quinolinecarboxylic acid], the MIC is 0.13 µg/mL (≈ 0.308 µM) in test [1] (setting [7]); 0.13 µg/mL (≈ 0.308 µM) in the test on E. coli Neumann (setting [8]); 0.13 µg/mL (≈ 0.308 µM) in test [2] (setting [9]); 0.13 µg/mL (≈ 0.308 µM) in test [3] (setting [10]); 0.25 µg/mL (≈ 0.593 µM) in the test on Micrococcus luteus 9341 (setting [11]); 0.06 µg/mL (≈ 0.142 µM) in test [4] (setting [12]). Besides, the MIC was determined as 0.06 µg/mL (≈ 0.142 µM) in test [5] (setting [13]) and 0.25 µg/mL (≈ 0.593 µM) in test [6] (setting [14]).
Take `C=C(Cl)c1c(N2CCN(C)CC2)c(F)cc2c(=O)c(C(=O)O)cn(C3CC3)c12.Cl` [Example 17, 8-(1-chlorovinyl)-1-cyclopropyl-6-fluoro-1,4-dihydro-7-(4-methyl-1-piperazinyl)-4-oxo-3-quinolinecarboxylic acid hydrochloride]: the minimal inhibitory concentration (MIC) is 0.03 µg/mL in test [1] (setting [7]); 0.03 µg/mL in the test with E. coli Neumann (setting [8]); 0.25 µg/mL in test [2] (setting [9]); 0.25 µg/mL in test [3] (setting [10]); 1 µg/mL in the test on Micrococcus luteus 9341 (setting [11]); 0.13 µg/mL in test [4] (setting [12]). For the same compound, the values for the MIC in test [5] (setting [13]) and in test [6] (setting [14]) were 0.13 µg/mL and 4 µg/mL, respectively.
